Reference: PMC12593409, “Heterochiral and Heterotypic Self-Assembly of Intrinsically Disordered Peptides Confers Peptide Supercoils with Exceptional Proteolytic Stability” (Journal of the American Chemical Society, 2025)
Where two headings read alike, the source gives them in different places. Non-standard residues stand in square brackets, D forms with d. Residues, ends and D or L forms follow the SMILES beside them. *: point of attachment. Acetyl(1-pyrenyl) = O=C(Cc1ccc2ccc3cccc4ccc1c2c34)*; d(pY) = N[C@H](Cc1ccc(OP(=O)(O)O)cc1)C(=O)O; pY = N[C@@H](Cc1ccc(OP(=O)(O)O)cc1)C(=O)O

Legend:
proteinase K = proteinase K (Parengyodontium album, UniProt P06873); experiment: Proteolytic stability against proteinase K, followed by LC/MS
Protocol: At designated time points, we quenched the reactions and analyzed them by LC/MS (Figures S34, S52–S53, and Table S1).
Proteinase K Treatment: To 200 µL solutions containing peptides 1, 2, 3, 4, and their mixtures (1/2, 1/4, 3/2, 3/4) in double-distilled water, 2 µL of a 100 mg/mL proteinase K stock solution was added to achieve a final concentration of 1 mg/mL. The reactions were incubated at 37 °C. For controls, 40 µL aliquots were withdrawn from each solution prior […]
were rapidly frozen in liquid nitrogen to stop the reaction. Samp les were then lyophilized at −80 °C, reconstituted in 0.1% TFA in H2O/acetonitrile (1:1 v/v), filtered, and analyzed […]
LC/MS analysis was performed with solvent A (water + 0.1% formic acid) and solvent B (acetonitrile + 0.1% formic acid) with a gradient program using the following separation […]
13.1 min 95%A, 5%B; 14 min 95%A, 5%B. The mass spectrometer was operated in positive ion mode, scanning a range of 50 –3000 m/z.

[1] = tested on: alkaline phosphatase (ALP); experiment: in vitro; conditions: alkaline phosphatase (ALP, 1 U/mL)
Excerpt: (§1) (D) Kinetics of ALP-mediated dephosphorylation under similar conditions using 1 U/mL ALP.
(§2) To further validate the structural hypothesis, we performed enzymatic assays using ALP, which removes phosphate groups from both D- and L-tyrosines and has been widely used to explore enzyme-instructed self-assembly (EISA). , This setup isolates Pyn-EEEEEpY as the reactive component, allowing us to assess the impact of coassembly with Pyn-KKKKKK on dephosphorylation kinetics. Using the same protocol as the protease experiments, we measured the rate of dephosphorylation for Pyn-EEEEEpY monomers and their homo- and heterochiral mixtures with two equivalents of Pyn-KKKKKK (Figure S54 and Table S2).

[2] = tested on: alkaline phosphatase (ALP); conditions: 1 U/mL ALP, 37 °C, neutral pH, monomeric peptide, LC/MS
Excerpt: as §1, §2

proteinase K, sequence (P06873 106-384): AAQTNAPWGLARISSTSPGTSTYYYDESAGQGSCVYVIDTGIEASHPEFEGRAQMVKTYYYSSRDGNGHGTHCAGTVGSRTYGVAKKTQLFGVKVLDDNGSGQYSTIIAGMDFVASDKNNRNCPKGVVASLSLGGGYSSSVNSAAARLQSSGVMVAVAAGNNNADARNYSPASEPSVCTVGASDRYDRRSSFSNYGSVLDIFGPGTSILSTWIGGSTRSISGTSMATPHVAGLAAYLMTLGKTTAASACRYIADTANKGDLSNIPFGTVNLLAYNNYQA

Compound: Pyn-(L)-EEEEEpY/Pyn-(L)-KKKKKK [1/4]
- increase in half-life compared to the L-peptide (1) alone (proteinase K): 287 fold
- thalf of Pyn-(L)-EEEEEpY (1) in proteinase K digestion (proteinase K): 2872 min

Compound: NCCCC[C@H](NC(=O)[C@H](CCCCN)NC(=O)[C@H](CCCCN)NC(=O)[C@H](CCCCN)NC(=O)[C@H](CCCCN)NC(=O)[C@H](CCCCN)NC(=O)Cc1ccc2ccc3cccc4ccc1c2c34)C(=O)O [compound 4, Pyn-(L)-KKKKKK]
- proteolysis of Pyn-(L)-KKKKKK (4) alone (proteinase K; 1 mg/mL proteinase K, 37 °C, peptide alone, LC/MS (Figure S35B)): largely resistant to proteolysis

Compound: O=C(O)CC[C@H](NC(=O)Cc1ccc2ccc3cccc4ccc1c2c34)C(=O)N[C@@H](CCC(=O)O)C(=O)N[C@@H](CCC(=O)O)C(=O)N[C@@H](CCC(=O)O)C(=O)N[C@@H](CCC(=O)O)C(=O)N[C@@H](Cc1ccc(OP(=O)(O)O)cc1)C(=O)O [compound 1, Pyn-(L)-EEEEEpY] ({Acetyl(1-pyrenyl)}-EEEEE[pY]-OH)
- time to almost complete proteolysis (proteinase K; 1 mg/mL proteinase K, 37 °C, neutral pH, 1 mM monomeric peptide, LC/MS): ≤ 30 min
- thalf of Pyn-(L)-EEEEEpY (1) in proteinase K digestion (proteinase K; 1 mg/mL proteinase K, 37 °C, neutral pH, double-distilled water, 1 mM 1 alone or 500 μM 1 with 2 equiv of 2 or 4, sampled 5 min, 30 min, 2 h, 24 h, kinetic analysis of HPLC peak areas (LC/MS)): approximately 10 min
- half-life at 1 mM (proteinase K; isolated enzyme proteinase k): 10 min
- half-life [1]: 4.7 min
- time to complete dephosphorylation [2]: ≤ 30 min

Compound: Pyn-(L)-EEEEEpY/Pyn-(D)-kkkkkk [1/2]
- cleavage slower than for Pyn-(L)-EEEEEpY (1) alone (proteinase K): over 360 times
- state of Pyn-(L)-EEEEEpY (1) under proteinase K for up to 24 h (proteinase K): remained largely intact
- thalf of Pyn-(L)-EEEEEpY (1) in proteinase K digestion (proteinase K): > 3600 min

Compound: O=C(O)CC[C@@H](NC(=O)Cc1ccc2ccc3cccc4ccc1c2c34)C(=O)N[C@H](CCC(=O)O)C(=O)N[C@H](CCC(=O)O)C(=O)N[C@H](CCC(=O)O)C(=O)N[C@H](CCC(=O)O)C(=O)N[C@H](Cc1ccc(OP(=O)(O)O)cc1)C(=O)O [compound 3, Pyn-(D)-eeeeepy] ({Acetyl(1-pyrenyl)}-[dE][dE][dE][dE][dE][d(pY)]-OH)
- half-life [1]: 9.6 min
- time to complete dephosphorylation [2]: ≤ 30 min
